Reference: patent US12559529B2, “NPY2 receptor agonists” (Boehringer Ingelheim International GmbH, priority 2019, dated 2026)
*1 amine or outer side, *2 acyl side, *3 side chain or, on linkers, in order; H or OH if unused. Where a SMILES comes first, the peptide text is derived from it. Side-chain parts run from the residue outwards. The star is where a group is joined. C18 diacid = O=C(O)CCCCCCCCCCCCCCCCC(=O)*; γGlu = O=C(O)[C@H](CCC(=O)[*:2])N[*:1]; Isovaleryl = CC(C)CC(=O)*; AEEA = NCCOCCOCC(=O)O

Key:
[1] = target: T1, Human Neuropeptide Y2 Receptor (Homo sapiens, UniProt P49146); assay: Radioligand binding competition assay (RLB); conditions: Table 3; human 125I-PYY (1-36) 0.02 nM, Y2 receptor membranes; read-out: Ki
T1 construct: purchased CHEMICON HTS066M
T1 sequence (P49146 1-381): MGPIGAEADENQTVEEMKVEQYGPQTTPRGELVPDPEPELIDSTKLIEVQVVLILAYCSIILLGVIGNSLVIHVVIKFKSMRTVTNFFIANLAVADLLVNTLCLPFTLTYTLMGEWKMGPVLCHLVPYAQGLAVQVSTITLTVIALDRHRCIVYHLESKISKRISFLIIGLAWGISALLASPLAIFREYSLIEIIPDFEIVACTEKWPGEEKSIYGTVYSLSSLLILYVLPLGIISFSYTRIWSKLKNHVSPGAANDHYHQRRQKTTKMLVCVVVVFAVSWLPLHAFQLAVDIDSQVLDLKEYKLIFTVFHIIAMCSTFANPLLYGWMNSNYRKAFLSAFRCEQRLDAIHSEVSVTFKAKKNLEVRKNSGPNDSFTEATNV
Method in brief: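 IC50 values come from nonlinear regression of sigmoidal dose-response curves of filter-bound radioactivity. Peptides competed with radioligand at human Y2 receptor membranes (0.5 μg protein/well) for 2 h at room temperature in pH 7.4 HEPES buffer containing Mg2+, Ca2+ and 0.2% ovalbumin.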

[2] = test system: normal NMRI mice; assay: Effect on acute food intake in normal NMRI mice; format: in vivo; conditions: male NMRI mice, 10 nmol/kg subcutaneously once
Method: Male NMRI mice were obtained from Charles River (Charles River, Research Models & Services Germany GmbH) or from Jan Vier (Jan Vier Labs, France) at 5 weeks of age. […] Room temperature was controlled to 21° C.±1° C., with 60%+20% humidity.
Animals were transferred 5-7 days before the start of the study to a real-time food intake monitoring system, HM-2 system (MBRose, Denmark), to allow acclimatization to experimental conditions. As the animals were uniquely identified with microchips, each individual animal was identified by its microchip upon entry and exit from the food channel. Randomization of the mice for each study group (n=7-8) was based on body weight measured the day before the start of the study. A vehicle-treated (50 mM phosphate buffer pH7 with 5% Mannitol) group was included in each experiment. Six hours before the start of the night phase animals were fasted. One hour before the dark phase animals were dosed once subcutaneously (10 nmol/kg) with test peptide. […] The food intake of the treated groups was normalized (in %) to the average food intake of the group receiving vehicle (Table 7). Statistical significance was evaluated using One-way analysis of variance with Turkey's multiple comparison test. P<0.05 was considered statistically significant.

Structure (SMILES) | Ki [1] [nM] | Acute Food Intake 24 h [% vehicle] [2] [% vehicle]
CC(C)CC(=O)N[C@@H](C)C(=O)N1CCC[C@H]1C(=O)N[C@@H](CCC(=O)O)C(=O)N[C@@H](CCCCNC(=O)COCCOCCNC(=O)COCCOCCNC(=O)CC[C@H](NC(=O)CCCCCCCCCCCCCCCCC(=O)O)C(=O)O)C(=O)N1CCC[C@H]1C(=O)N[C@@H](CCC(=O)O)C(=O)N[C@@H](CCC(=O)O)C(=O)N[C@@H](CCC(=O)O)C(=O)N[C@@H](C)C(=O)N[C@@H](CO)C(=O)N1CCC[C@H]1C(=O)N[C@@H](C)C(=O)N[C@@H](CCC(=O)O)C(=O)N[C@@H](CC(C)C)C(=O)N[C@@H](CCC(N)=O)C(=O)N[C@@H](CCCNC(=N)N)C(=O)N[C@@H](Cc1ccc(O)cc1)C(=O)N[C@@H](Cc1ccc(O)cc1)C(=O)N[C@H](C(=O)N[C@@H](CO)C(=O)N[C@@H](CC(C)C)C(=O)N[C@@H](CCCNC(=N)N)C(=O)N[C@@H](Cc1c[nH]cn1)C(=O)N[C@@H](Cc1ccc(O)cc1)C(=O)N[C@@H](Cc1ccc(O)cc1)C(=O)N[C@@H](CC(N)=O)C(=O)N[C@@H](Cc1c[nH]c2ccccc12)C(=O)N[C@@H](CC(C)C)C(=O)N[C@H](C(=O)N[C@@H](CCCNC(=N)N)C(=O)N[C@@H](CCC(N)=O)C(=O)N[C@@H](CCCNC(=N)N)C(=O)N[C@@H](Cc1ccc(O)cc1)C(N)=O)[C@@H](C)O)C(C)C [Compound 3, N{alpha-4}-(3-methylbutanoyl)-N{epsilon-7}-[2-(2-{2-[2-(2-{2-[(4S)-4-carboxy-4-(17-carboxyheptadecanamido)butanamido]ethoxy}ethoxy)acetamido]ethoxy}ethoxy)acetamido]-[4A,7K,9E,11E,15A,18Q,22V,28Y,30W,31L]hPYY (4-36)] (Isovaleryl-APEK([AEEA-AEEA-γGlu-C18 diacid])PEEEASPAELQRYYVSLRHYYNWLTRQRY-NH2) | 3.14 | 62
CC(C)CC(=O)N[C@@H](C)C(=O)N1CCC[C@H]1C(=O)N[C@@H](CCC(=O)O)C(=O)N[C@@H](CCCCNC(=O)COCCOCCNC(=O)COCCOCCNC(=O)CC[C@H](NC(=O)CCCCCCCCCCCCCCCCC(=O)O)C(=O)O)C(=O)N1CCC[C@H]1C(=O)N[C@@H](CCC(=O)O)C(=O)N[C@@H](CCC(=O)O)C(=O)N[C@@H](CC(=O)O)C(=O)N[C@@H](C)C(=O)N[C@@H](CO)C(=O)N1CCC[C@H]1C(=O)N[C@@H](CCC(=O)O)C(=O)N[C@@H](CCC(=O)O)C(=O)N[C@@H](CC(C)C)C(=O)N[C@@H](CCC(N)=O)C(=O)N[C@@H](C)C(=O)N[C@@H](Cc1ccc(O)cc1)C(=O)N[C@@H](Cc1ccc(O)cc1)C(=O)N[C@H](C(=O)N[C@@H](CO)C(=O)N[C@@H](CC(C)C)C(=O)N[C@@H](CCCNC(=N)N)C(=O)N[C@@H](Cc1c[nH]cn1)C(=O)N[C@@H](Cc1ccc(O)cc1)C(=O)N[C@@H](Cc1ccc(O)cc1)C(=O)N[C@@H](CC(N)=O)C(=O)N[C@@H](Cc1c[nH]c2ccccc12)C(=O)N[C@@H](CC(C)C)C(=O)N[C@H](C(=O)N[C@@H](CCCNC(=N)N)C(=O)N[C@@H](CCC(N)=O)C(=O)N[C@@H](CCCNC(=N)N)C(=O)N[C@@H](Cc1ccc(O)cc1)C(N)=O)[C@@H](C)O)C(C)C [Compound 7, N{alpha-4}-(3-methylbutanoyl)-N{epsilon-7}-[2-(2-{2-[2-(2-{2-[(4S)-4-carboxy-4-(17-carboxyheptadecanamido)butanamido]ethoxy}ethoxy)acetamido]ethoxy}ethoxy)acetamido]-[4A,7K,9E,18Q,19A,22V,28Y,30W,31L]hPYY (4-36)] | 1.02 | 47
CC[C@H](C)[C@H](NC(=O)[C@H](CCC(=O)O)NC(=O)[C@H](CCC(=O)O)NC(=O)[C@@H]1CCCN1C(=O)[C@H](CO)NC(=O)[C@H](C)NC(=O)[C@H](CC(=O)O)NC(=O)[C@H](CCC(=O)O)NC(=O)[C@H](CCC(=O)O)NC(=O)[C@@H]1CCCN1C(=O)[C@H](CCCCNC(=O)COCCOCCNC(=O)COCCOCCNC(=O)CC[C@H](NC(=O)CCCCCCCCCCCCCCCCC(=O)O)C(=O)O)NC(=O)[C@H](CCC(=O)O)NC(=O)[C@@H]1CCCN1C(=O)[C@H](C)NC(=O)CC(C)C)C(=O)N[C@@H](CCC(N)=O)C(=O)N[C@@H](CCCNC(=N)N)C(=O)N[C@@H](Cc1ccc(O)cc1)C(=O)N[C@@H](Cc1ccc(O)cc1)C(=O)N[C@H](C(=O)N[C@@H](CCC(=O)O)C(=O)N[C@@H](CC(C)C)C(=O)N[C@@H](CCCNC(=N)N)C(=O)N[C@@H](Cc1c[nH]cn1)C(=O)N[C@@H](Cc1ccc(O)cc1)C(=O)N[C@@H](Cc1ccc(O)cc1)C(=O)N[C@@H](CC(N)=O)C(=O)N[C@@H](Cc1c[nH]c2ccccc12)C(=O)N[C@@H](CC(C)C)C(=O)N[C@H](C(=O)N[C@@H](CCCNC(=N)N)C(=O)N[C@@H](CCC(N)=O)C(=O)N[C@@H](CCCNC(=N)N)C(=O)N[C@@H](Cc1ccc(O)cc1)C(N)=O)[C@@H](C)O)C(C)C [Compound 9, N{alpha-4}-(3-methylbutanoyl)-N{epsilon-7}-[2-(2-{2-[2-(2-{2-[(4S)-4-carboxy-4-(17-carboxyheptadecanamido)butanamido]ethoxy}ethoxy)acetamido]ethoxy}ethoxy)acetamido]-[4A,7K,9E,17I,18Q,22V,23E,28Y,30W,31L]hPYY (4-36)] | 1.22 | 44
CC(C)CC(=O)N[C@@H](C)C(=O)N1CCC[C@H]1C(=O)N[C@@H](CCC(=O)O)C(=O)N[C@@H](CCCCNC(=O)COCCOCCNC(=O)COCCOCCNC(=O)CC[C@H](NC(=O)CCCCCCCCCCCCCCCCC(=O)O)C(=O)O)C(=O)N1CCC[C@H]1C(=O)N[C@@H](CCC(=O)O)C(=O)N[C@@H](CCC(=O)O)C(=O)N[C@@H](CC(=O)O)C(=O)N[C@@H](C)C(=O)N[C@@H](CO)C(=O)N1CCC[C@H]1C(=O)N[C@@H](CCC(=O)O)C(=O)N[C@@H](CCC(=O)O)C(=O)N[C@H](C(=O)N[C@@H](CCC(N)=O)C(=O)N[C@@H](CCCNC(=N)N)C(=O)N[C@@H](Cc1ccc(O)cc1)C(=O)N[C@@H](Cc1ccc(O)cc1)C(=O)N[C@H](C(=O)N[C@H](C(=O)N[C@@H](CC(C)C)C(=O)N[C@@H](CCCNC(=N)N)C(=O)N[C@@H](Cc1c[nH]cn1)C(=O)N[C@@H](Cc1ccc(O)cc1)C(=O)N[C@@H](Cc1ccc(O)cc1)C(=O)N[C@@H](CC(N)=O)C(=O)N[C@@H](Cc1c[nH]c2ccccc12)C(=O)N[C@@H](CC(C)C)C(=O)N[C@H](C(=O)N[C@@H](CCCNC(=N)N)C(=O)N[C@@H](CCC(N)=O)C(=O)N[C@@H](CCCNC(=N)N)C(=O)N[C@@H](Cc1ccc(O)cc1)C(N)=O)[C@@H](C)O)[C@@H](C)O)C(C)C)[C@@H](C)O [Compound 16, N{alpha-4}-(3-methylbutanoyl)-N{epsilon-7}-[2-(2-{2-[2-(2-{2-[(4S)-4-carboxy-4-(17-carboxyheptadecanamido)butanamido]ethoxy}ethoxy)acetamido]ethoxy}ethoxy)acetamido]-[4A,7K,9E,17T,18Q,22V,23T,28Y,30W,31L]hPYY (4-36)] | 3.09 | 67
CC(C)CC(=O)N[C@@H](C)C(=O)N1CCC[C@H]1C(=O)N[C@@H](CCC(=O)O)C(=O)N[C@@H](CCCCNC(=O)COCCOCCNC(=O)COCCOCCNC(=O)CC[C@H](NC(=O)CCCCCCCCCCCCCCCCC(=O)O)C(=O)O)C(=O)N1CCC[C@H]1C(=O)N[C@@H](CCC(=O)O)C(=O)N[C@@H](CCC(=O)O)C(=O)N[C@@H](CC(=O)O)C(=O)N[C@@H](C)C(=O)N[C@@H](CO)C(=O)N1CCC[C@H]1C(=O)N[C@@H](CCC(=O)O)C(=O)N[C@@H](CCC(=O)O)C(=O)N[C@@H](CC(C)C)C(=O)N[C@@H](CCC(N)=O)C(=O)N[C@@H](CCC(N)=O)C(=O)N[C@@H](Cc1ccc(O)cc1)C(=O)N[C@@H](CCC(=O)O)C(=O)N[C@H](C(=O)N[C@@H](CO)C(=O)N[C@@H](CC(C)C)C(=O)N[C@@H](CCCNC(=N)N)C(=O)N[C@@H](Cc1c[nH]cn1)C(=O)N[C@@H](Cc1ccc(O)cc1)C(=O)N[C@@H](Cc1ccc(O)cc1)C(=O)N[C@@H](CC(N)=O)C(=O)N[C@@H](Cc1c[nH]c2ccccc12)C(=O)N[C@@H](CC(C)C)C(=O)N[C@H](C(=O)N[C@@H](CCCNC(=N)N)C(=O)N[C@@H](CCC(N)=O)C(=O)N[C@@H](CCCNC(=N)N)C(=O)N[C@@H](Cc1ccc(O)cc1)C(N)=O)[C@@H](C)O)C(C)C [Compound 167, N{alpha-4}-(3-methylbutanoyl)-N{epsilon-7}-[2-(2-{2-[2-(2-{2-[(4S)-4-carboxy-4-(17-carboxyheptadecanamido)butanamido]ethoxy}ethoxy)acetamido]ethoxy}ethoxy)acetamido]-[4A,7K,9E,18Q,19Q,21E,22V,28Y,30W,31L]hPYY (4-36)] (Isovaleryl-APEK([AEEA-AEEA-γGlu-C18 diacid])PEEDASPEELQQYEVSLRHYYNWLTRQRY-NH2) |  | 73
